Laboratory results from ChEMBL document CHEMBL1133217, “Purpurinimides as photosensitizers: effect of the presence and position of the substituents in the in vivo photodynamic efficacy” (Bioorg Med Chem Lett, 2000).

Legend:
[1] = Partition coefficient (logP); type: physicochemical; settings: octanol/water
[2] = tested on: Mus musculus; assay: In vivo antitumor activity was determined after administration of compound (1.0 umol/kg) in mice bearing RIF tumors exposed to laser light (135 J/cm**2) on day 7; type: functional
[3] = tested on: Mus musculus; assay: In vivo antitumor activity was determined after administration of compound (1.0 umol/kg) in mice bearing RIF tumors exposed to laser light (135 J/cm**2) on day 30; type: functional
[4] = tested on: Mus musculus; assay: In vivo antitumor activity was determined after administration of compound (1.0 umol/kg) in mice bearing RIF tumors exposed to laser light (135 J/cm**2) on day 1-2; type: functional
[5] = tested on: Mus musculus; assay: In vivo antitumor activity was determined after administration of compound (1.0 umol/kg) in mice bearing RIF tumors exposed to laser light (135 J/cm**2) on day 14; type: functional
[6] = tested on: Mus musculus; assay: In vivo antitumor activity was determined after administration of compound (1.0 umol/kg) in mice bearing RIF tumors exposed to laser light (135 J/cm**2) on day 21; type: functional
[7] = tested on: Mus musculus; assay: In vivo antitumor activity was determined after administration of compound (1.0 umol/kg) in mice bearing RIF tumors exposed to laser light (135 J/cm**2) on day 14; No rseponse; type: functional, organism-based
[8] = tested on: Mus musculus; assay: In vivo antitumor activity was determined after administration of compound (1.0 umol/kg) in mice bearing RIF tumors exposed to laser light (135 J/cm**2) on day 21; No rseponse; type: functional, organism-based
[9] = tested on: Mus musculus; assay: In vivo antitumor activity was determined after administration of compound (1.0 umol/kg) in mice bearing RIF tumors exposed to laser light (135 J/cm**2) on day 30; No rseponse; type: functional, organism-based
[10] = tested on: Mus musculus; assay: In vivo antitumor activity was determined after administration of compound (1.0 umol/kg) in mice bearing RIF tumors exposed to laser light (135 J/cm**2) on day 1-2; No rseponse; type: functional, organism-based
[11] = tested on: Mus musculus; assay: In vivo antitumor activity was determined after administration of compound (1.0 umol/kg) in mice bearing RIF tumors exposed to laser light (135 J/cm**2) on day 7; No rseponse; type: functional, organism-based
[12] = tested on: Mus musculus; assay: In vivo antitumor activity was determined after administration of compound (1.0 umol/kg) in mice bearing RIF tumors exposed to laser light (135 J/cm**2) on day 7; Tumor regrowth; type: functional, organism-based

logP [1]	Compound	Tumor cure [2] [%]	Tumor cure [3] [%]	Tumor cure [4] [%]	Tumor cure [5] [%]	Tumor cure [6] [%]	Tumor cure [7]	Tumor cure [8]	Tumor cure [9]	Tumor cure [10]	Tumor cure [11]	Tumor cure [12]
10.8	CCCCCCCCOCC1=C(C)c2cc3nc(c4c5[nH]c(cc6[nH]c(cc1n2)c(C)c6CC)c(C)c5C(=O)N(CCCCCC)C4=O)[C@@H](CCC(=O)OC)[C@@H]3C	–	–	–	–	–	No response	No response	No response	No response	No response	–
10.62	CCCCCCCCCCN1C(=O)c2c3nc(cc4nc(cc5[nH]c(cc6[nH]c2c(c6C)C1=O)c(CC)c5C)C(CC)=C4C)[C@@H](C)[C@@H]3CCC(=O)OC	–	–	100	–	–	–	–	–	–	–	Tumour regrowth

More lines, now with the values behind:

Compound	logP [1]	Tumor cure [2] [%]	Tumor cure [3] [%]	Tumor cure [4] [%]	Tumor cure [5] [%]	Tumor cure [6] [%]	Tumor cure [7]	Tumor cure [8]	Tumor cure [9]	Tumor cure [10]	Tumor cure [11]	Tumor cure [12]
CCCCCCCOC(C)C1=C(C)c2cc3nc(c4c5[nH]c(cc6[nH]c(cc1n2)c(C)c6CC)c(C)c5C(=O)N(CCCCCC)C4=O)[C@@H](CCC(=O)OC)[C@@H]3C (some centres not stated)	10.83	100	100	100	100	100	–	–	–	–	–	–
CCCCCCCOC(C)c1c(C)c2cc3[nH]c(cc4nc(c5c6nc(cc1[nH]2)C(C)=C6C(=O)N(CCCCCC)C5=O)[C@@H](CCC(=O)OC)[C@@H]4C)c(C)c3CC (some centres not stated)	10.83	–	–	–	–	–	No response	No response	No response	No response	No response	–
CCCCCCCOCc1c2nc(c3c4nc(cc5[nH]c(cc6[nH]c1c(C)c6CC)c(C)c5CC)C(C)=C4C(=O)N(CCCCCC)C3=O)[C@@H](CCC(=O)OC)[C@@H]2C	10.78	50	50	50	50	50	–	–	–	–	–	–
